From patent US20250351832A1, “PHYTOCHEMICALS AS BIOPESTICIDES AND BIOSTIMULANTS” (KAY BEE BIO ORGANICS PVT. LTD., priority 2024, published 2025)
Where two headings read alike, the source gives them in different places.

Assays:
Thrips [1] = assay: whole plant or invertebrate; conditions: in Gossypium hirsutum, 48 h
Alternaria alternata = assay: In vitro poisoned food technique against fungus (Ex. 20); assay type: cell-based; conditions: poisoned food technique, PDA medium, dose 1 ml/gm/lit., after seven days, vs untreated control, read-out: % Inhibition of growth
Helicoverpa armigera [2] = assay: Controlled conditions, Helicoverpa armigera on chickpea plants (Ex. 25); conditions: in vivo
[3] = cited from earlier work
Spodoptera litura [4] = conditions: 72 h, 1 mL or g/L
tomato seedlings = assay: Response of tomato plants, greenhouse growth (Ex. 30); assay type: in vivo
Spodoptera litura [5] = assay: Controlled conditions, Spodoptera litura on cabbage plants (Ex. 26); conditions: in vivo
chili seedlings = assay: Response of chili plants, greenhouse growth (Ex. 31); assay type: in vivo
Helicoverpa armigera [6] = assay: In vitro bio-efficacy against Helicoverpa armigera (Ex. 17); conditions: in vivo
Aphid [7] = assay: whole plant or invertebrate; conditions: 48 h
Thrips [8] = assay: Greenhouse effect on thrips, cotton plants (Ex. 27); conditions: in vivo
Aphid [9] = conditions: 48 h, 1 mL or g/L
Mealy Bug [10] = assay: In vitro bio-efficacy against mealy bug (Ex. 16); conditions: in vivo
Aphid [11] = test system: Aphid
Mite [12] = conditions: Dose 1 ml/gm/lit.; 48 hrs
Thrips [13] = conditions: 48 h
Mite [14] = assay: Green house effect on mite, okra plants (Ex. 23); conditions: in vivo
Thrips [15] = conditions: 48 h, 1 mL or g/L
Spodoptera litura [16] = assay: whole plant or invertebrate; conditions: 72 h
Mealy Bug [17] = assay: Green house effect on mealy bugs, cotton plants (Ex. 24); conditions: in vivo
[18] = read-out: % Corrected Mortality at 48 Hrs.
[19] = read-out: % Mortality at 48 Hrs.
[20] = Table 13, descriptive, no test described
[21] = tomato seedlings, 10th day, dose 1 ml/gm/lit
[22] = tomato seedlings, dose 1 ml/gm/lit, 10th day
[23] = chili seedlings, dose 1 ml/gm/lit, 10th day

C=CCc1ccc(O)c(OC)c1 [Eugenol]
mortality at 1 mL or g/L (Thrips [1]; [18]): 14.3% | mortality at 1 mL or g/L (Thrips [1]; [19]): 25% | inhibition of growth at 1 mL or g/L (Alternaria alternata): 42.6% | % Corrected Mortality at 72 Hrs. (Helicoverpa armigera [2]): 42.50% | % Mortality at 72 Hrs. (Helicoverpa armigera [2]): 42.50% | Acaricidal Activity - Mode of action [3, 20]: Inhibitory effects against | Antifungal Activity - Mode of action [3, 20]: Inhibition of myceial growth | Antioxidant Activity - Mode of action [3, 20]: Scavenge free radicals, | Bactericidal Activity - Mode of action [3, 20]: Alters membrane permeability | Insecticidal Activities - Mode of action [3, 20]: Growth inhibitory, | Nematicidal Activity - Mode of action [3, 20]: Inhibited egg differentiation | Virucidal Activity - Mode of action [3, 20]: Inactivated the cell-free | Phytotonic Effect ([3]; Table 13, effect on plants, descriptive): Regulating | Total No. of dead insect at 72 Hrs. (Spodoptera litura [4]): 6.00 | CCI Pre (tomato seedlings): 11.50 | Plant Height Pre (tomato seedlings): 5.65 cm | Stem Girth Pre (tomato seedlings): 1.34 mm | CCI 5th Day (tomato seedlings; 120 h): 13.74 | Plant Height 5th Day (tomato seedlings; 120 h): 6.66 cm | Stem Girth 5th Day (tomato seedlings; 120 h): 1.70 mm | CCI 10th Day (tomato seedlings; 240 h): 15.48 | Plant Height 10th Day (tomato seedlings; 240 h): 7.56 cm | Root Length % Increase over control (tomato seedlings; 240 h): 31.25% | Stem Girth 10th Day (tomato seedlings; 240 h): 2.31 mm | Plant Height % Increase over pre on 10th Day (tomato seedlings; [21]): 33.81% | Stem Girth % Increase over pre on 10th Day (tomato seedlings; [21]): 72.90% | CCI % Increase over pre on 10th Day (tomato seedlings; [22]): 34.61% | Root Length (cm) 10th Day (tomato seedlings; [22]): 4.37 cm | % Corrected Mortality at 72 Hrs. (Spodoptera litura [5]): 60.53% | % Mortality at 72 Hrs. (Spodoptera litura [5]): 62.50% | CCI Pre (chili seedlings): 10.10 | Plant Height (cm) Pre (chili seedlings): 4.57 cm | CCI 5th Day (chili seedlings; 120 h): 13.40 | Plant Height (cm) 5th Day (chili seedlings; 120 h): 6.53 cm | CCI 10th Day (chili seedlings; 240 h): 15.48 | Plant Height (cm) 10th Day (chili seedlings; 240 h): 7.59 cm | Root Lenght % Increase over control (chili seedlings; 240 h): 52.07% | CCI % Increase over pre on 10th Day (chili seedlings; [23]): 53.27% | Plant Height % Increase over pre on 10th Day (chili seedlings; [23]): 66.08% | Root Lenght (cm) 10th Day (chili seedlings; [23]): 4.16 cm | Stem Girth % Increase over pre on 10th Day (chili seedlings; [23]): 54.59% | % Corrected Mortality at 72 Hrs. (Helicoverpa armigera [6]): 47.50% | % Mortality at 72 Hrs. (Helicoverpa armigera [6]): 47.50% | mortality at 1 mL or g/L (Aphid [7]; [18]): 58.8% | mortality at 1 mL or g/L (Aphid [7]; [19]): 65% | % Corrected Mortality at 48 Hrs. (Thrips [8]): 19.44% | % Mortality at 48 Hrs. (Thrips [8]): 27.50% | Total No. of dead insect at 48 Hrs. (Aphid [9]): 65.00 | % Corrected Mortality at 48 Hrs. (Mealy Bug [10]): 63.16% | % Mortality at 48 Hrs. (Mealy Bug [10]): 65.00% | Total No. of dead insect at 48 Hrs. (Aphid [11]; 48 h): 6.00 | % Corrected Mortality at 48 Hrs. (Aphid [11]; Dose 1 ml/gm/lit., 48 hrs): 54.29% | % Mortality at 48 Hrs. (Aphid [11]; Dose 1 ml/gm/lit., 48 hrs): 60.00% | % Corrected Mortality at 48 Hrs. (Mite [12]): 48.65% | Total No. of dead insect at 48 Hrs. (Thrips [13]): 27.50 | % Corrected Mortality at 48 Hrs. (Mite [14]): 50.00% | % Mortality at 48 Hrs. (Mite [14]): 52.50% | Total No. of dead insect at 48 Hrs. (Thrips [15]): 2.50 | mortality at 1 mL or g/L (Spodoptera litura [16]; read-out: % Corrected Mortality at 72 Hrs.): 57.9% | mortality at 1 mL or g/L (Spodoptera litura [16]; read-out: % Mortality at 72 Hrs.): 60% | % Corrected Mortality at 48 Hrs. (Mealy Bug [17]): 72.22% | % Mortality at 48 Hrs. (Mealy Bug [17]): 75.00%
